Where only a bound is given, the exact number is not on record here.

The target in one assay is AKT1 (Homo sapiens, UniProt P31749). Briefly: Kinase profiler assay, AKT1. The settings on record: bound stated jointly for the other protein kinases; Table S3. Format: biochemical. Here is the method:
(§1) The effects of LLL12 on twenty six purified human protein kinases were performed at the Millipore UK Limited (Dundee, UK) and Reaction Biology Corp. (Malvern, PA) using the Kinase profiler assay. Assays contained a peptide substrate, purified recombinant human protein kinases to be tested, and gamma-labeled ATP, magnesiumion. Radioactive phosphorylated product was measured and quantitated via a scintillation counter.

Assay [1] deals with ALDH+/CD44+/CD24− SUM-159 breast cancer stem-like cells. As to the kind of experiment: Mouse xenograft of SUM159 ALDH+/CD44+/CD24− cells. The note with it: 5 mg/kg IP daily; P<0.05. The assay is classed as in vivo, NOD/SCID mice. Here is the method:
All animal studies were conducted in accordance with the principles and standard procedures approved by IACUC at the Research Institute at Nationwide Children’s Hospital and the University Committee on the Use and Care of Animals at the University of Michigan. ALDH^+ subpopulations of MDA-MB-231 and ALDH^+/CD44^+/CD24^− subpopulations of SUM-159 breast cancer cells (1×10^5) respectively were injected subcutaneous (s.c.) into the flank area of female Non-obese diabetic (NOD)/Severe combined immunodeficiency (SCID) mice which were purchased from Jackson Laboratory.

Another assay has as its target c-Raf (Homo sapiens, UniProt P04049). Briefly: Kinase profiler assay, c-Raf. The note with it: bound stated jointly for the other protein kinases; Table S3. The assay is classed as biochemical. Here is the method:
as §1

Assay [2] concerns mTOR and AKT phosphorylation. As to the kind of experiment: mTOR and AKT phosphorylation in ALDH+ cells. The settings on record: ALDH+ subpopulation, all three cell lines; 5 µmol/L, 24 hours. The assay is classed as cell-based, human. Here is the method:
After sorting by flow cytometry, ALDH^+ and ALDH^+/CD44^+/CD24^− stem-like cells were cultured in serum-free stem cell medium in ultra-low attachment six-well plates (Corning) to maintain cancer stem cell characteristics. ALDH^−, ALDH^−/CD44^+/CD24^+cells and un-separated cells were cultured in regular medium and replaced with identical stem cell medium for three days before being harvested. To assess the effects of STAT3 inhibitors, ALDH^+ and ALDH^+/CD44^+/CD24^− subpopulations of breast cancer cells were treated with LLL12 (5 µmol/L) of or static (10 µmol/L) for 24 hours. STAT3, or control GFP shRNA lentivirus (CTL ShRNA) was introduced into ALDH^+ breast cancer stem-like cells for 48 hours, then followed by selection with puromycin (0.2 µg/ml) for 72 hours. Antibodies (Cell Signaling Tech.) against phospho-specific STAT3 (Tyrosine 705) (P-STAT3, Y705), ERK1/2 (Threonine 202/Tyrosine 204), cleaved Poly (ADP-ribose) polymerase (PARP), ALDH1, cleaved caspase-3, and GAPDH were used for western blots.

The next assay deals with ALDH− cells. As to the kind of experiment: MTT cell viability assay, ALDH− subpopulation. Format: cell-based, human. The settings on record: Figure S4. Here is the method: The breast cancer cells were seeded in 96-well plates (3,000 cells/well) in triplicates in a serum-free mammary epithelial basal medium. The following day, cancer cells were treated with 1 to 10 µmol/L of LLL12 or Stattic for 72 hours, STAT3 ShRNA or control GFP shRNA lentivirus (CTL ShRNA) for 48 hours. MTT (Thiazolyl Blue Tetrazolium Bromide, Sigma-Aldrich) assay was used to determine the cell viability.

Assay [3] relates to ALDH+/CD44+/CD24− subpopulation of MDA-MB-231 and SUM159. Briefly: Caspase-3 cleavage in ALDH+/CD44+/CD24− cells. The assay is classed as cell-based, human. The note with it: 0.5–5 µM. Here is the method: The ALDEFLUOR kit (StemCell Technologies) was used to isolate the population with high ALDH enzymatic activity as previously described. Briefly, cells were trypsinized to single cells using 0.05% trypsin and subsequently suspended in ALDEFLUOR assay buffer containing ALDH substrate (BAAA, 1 µmol/l per 1×10^6 cells) and then incubated for 40 minutes at 37°C. For each sample, an aliquot of cells was stained under identical conditions with 15 mmol/L diethylaminobenzaldehyde (DEAB), a specific ALDH inhibitor, as an ALDH^− control. Anti-human PE-CD24 and PE-Cy5-CD44 antibody (BioLegend) were used for CD44/CD24 identification and to separate ALDH^+/CD44^+/CD24^− and ALDH^−/CD44^+/CD24^+ cells when combined with ALDH staining. Analysis was performed using a FACStarPLUS (Becton Dickinion) flow cytometer. To assess the effect of STAT3 inhibitors on the subpopulation of ALDH^+ cells, un-separated breast cancer cells were treated with 5 µmol/L of LLL12 or 10 µmol/L Stattic for 24 hours prior to performing the ALDEFLUOR assay.
After sorting by flow cytometry, ALDH^+ and ALDH^+/CD44^+/CD24^− stem-like cells were cultured in serum-free stem cell medium in ultra-low attachment six-well plates (Corning) to maintain cancer stem cell characteristics. […]

In assay [4] the test system is tumor tissues from breast cancer stem-like cells. As to the kind of experiment: Immunohistochemistry of tumor tissues (Ki-67, cleaved caspase-3). Format: in vivo, NOD/SCID mice. The note with it: 5 mg/kg IP daily. Here is the method:
Human breast cancer tissue microarray slides, comprising 95 breast cancer cases, were obtained from the Biochain Institute, Inc.. These slides were baked at 60°C for 1 hour. After deparaffinization, the slides were boiled in a pressure cooker filled with 10 mM Sodium Citrate (PH6.0), and then subjected to immunohistochemistry or immunofluorescence staining. P-STAT3 (Y705) (1∶25; Signaling Technology, Beverly, MA), ALDH1 (1∶100; BD Pharmingen, San Diego, CA), Ki-67 (1∶100; Santa Cruz Biotechnology, Santa Cruz, CA) or cleaved Caspase-3 (1∶100; Signaling Technology, Beverly, MA) antibody were used. For immunofluorescence, the slides were incubated with both primary antibodies and double-stained with Alexa Fluor® 488 conjugated anti-rabbit IgG and Alexa Fluor® 594 conjugated anti-mouse IgG (Cell Signaling Technology, Beverly, MA) overnight at 4°C. The nuclei were subsequently stained with DAPI. For immunohistochemistry, endogenous peroxidase activity was quenched by incubation in 3% hydrogen peroxide for 10 min. After blocking, the slides were incubated with primary antibody overnight at 4°C. The Histostain-Plus Kits (Invitrogen, Carlsbad, CA) were used per the manufacturer’s protocol. […] The staining intensity was scored under microscope as described elsewhere. Significance of correlation between P-STAT3 and ALDH1 was determined using two-sided Pearson Chi-square (χ^2) test.

Another assay concerns STAT3 target genes. Briefly: RT-PCR of STAT3 downstream target genes in ALDH+ cells. Format: cell-based, human. The note with it: 5 µM, 24 h. Here is the method:
The ALDH^+ and ALDH^+/CD44^+/CD24^− subpopulations of breast cancer cells were treated with LLL12 (5 µM) or DMSO for 24 h. RNA from the cells was then collected using RNeasy Kits (Qiagen). cDNA was constructed from a 500 ng sample of RNA using Omniscript RT (Qiagen). Primer sequences and source information can be found in Table S1. The intensity of bands was quantified and normalized to GAPDH.

Sequence of AKT1 (P31749 whole entry): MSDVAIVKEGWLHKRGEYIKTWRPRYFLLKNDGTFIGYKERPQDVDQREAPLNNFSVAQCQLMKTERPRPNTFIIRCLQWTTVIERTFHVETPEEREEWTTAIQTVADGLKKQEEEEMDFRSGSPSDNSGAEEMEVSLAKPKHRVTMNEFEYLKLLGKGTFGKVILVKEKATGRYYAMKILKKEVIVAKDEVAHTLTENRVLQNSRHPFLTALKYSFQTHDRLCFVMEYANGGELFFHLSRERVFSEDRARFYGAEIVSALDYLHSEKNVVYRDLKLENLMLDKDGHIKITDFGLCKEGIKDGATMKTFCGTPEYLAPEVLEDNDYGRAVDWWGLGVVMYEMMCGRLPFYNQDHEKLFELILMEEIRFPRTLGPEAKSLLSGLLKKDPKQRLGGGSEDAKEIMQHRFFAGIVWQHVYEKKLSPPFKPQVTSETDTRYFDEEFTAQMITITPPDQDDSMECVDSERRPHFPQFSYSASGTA
Sequence of c-Raf (P04049 whole entry): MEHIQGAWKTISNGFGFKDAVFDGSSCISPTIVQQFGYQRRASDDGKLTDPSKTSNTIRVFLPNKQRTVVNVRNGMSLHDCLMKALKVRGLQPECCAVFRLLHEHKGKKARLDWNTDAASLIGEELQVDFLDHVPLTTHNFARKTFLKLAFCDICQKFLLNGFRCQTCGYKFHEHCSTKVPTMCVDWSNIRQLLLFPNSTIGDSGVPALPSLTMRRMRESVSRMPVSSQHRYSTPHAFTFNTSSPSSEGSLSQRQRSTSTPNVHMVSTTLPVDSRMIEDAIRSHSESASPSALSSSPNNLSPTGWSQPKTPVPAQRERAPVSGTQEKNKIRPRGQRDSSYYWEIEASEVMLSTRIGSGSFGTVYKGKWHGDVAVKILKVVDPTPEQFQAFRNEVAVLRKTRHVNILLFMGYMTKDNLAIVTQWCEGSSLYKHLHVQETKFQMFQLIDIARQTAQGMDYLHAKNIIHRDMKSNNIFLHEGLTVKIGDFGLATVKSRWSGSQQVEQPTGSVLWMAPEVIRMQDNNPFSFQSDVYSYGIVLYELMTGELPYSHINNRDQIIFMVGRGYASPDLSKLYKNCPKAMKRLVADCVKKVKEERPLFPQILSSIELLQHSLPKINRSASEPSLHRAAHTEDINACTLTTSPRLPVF

On to `NS(=O)(=O)c1cccc2c1C(=O)c1cccc(O)c1C2=O` [LLL12], for which the concentration for half-maximal inhibition (IC50) at AKT1 and at c-Raf was not below 77.9 µM each time. For the same compound, in assay [1], the tumor volume entry is reported as “significantly suppressed”. In addition, the “mTOR and AKT phosphorylation” value in assay [2] was “almost no effect”. For the same compound, the “effects against the ALDH− cells (cell viability)” value in the assay on ALDH− cells is on record as “some inhibitory effects”. The caspase-3 cleavage result in assay [3] was “induced caspase-3 cleavage”. Also, the “number of Ki-67 positive cells” value in assay [4] was “decreased”. Besides, the “number of cleaved caspase-3 positive cells” value in assay [4] is “increased”. Further, in the assay with STAT3 target genes (ALDH+ breast cancer cells), the “expression of STAT3 target genes Cyclin D1, survivin, Bcl-2, Bcl-XL, MMP-2, and MMP-9” value is “down-regulated”. The “Twist1, Notch-1, and Notch-3 expression” value in the assay on STAT3 target genes (ALDH+ breast cancer stem-like cells) was “inhibited”.

For the origin of these results see PMC3871589, “Evaluation of STAT3 Signaling in ALDH+ and ALDH+/CD44+/CD24− Subpopulations of Breast Cancer Cells” (PLoS ONE, 2013).
